The values that follow come from article PMC2710614 (Chemistry & biology, 2009).

For this assay, the target named is TrpRS (Escherichia coli, UniProt P00954). Nature of the assay: ATP-PPi exchange of gamma-18O4-ATP, MALDI-TOFMS. It is filed as biochemical. The settings on record: 1 mM amino acid, 1 mM gamma-18O4-ATP, 5 mM MgCl2, 5 mM PPi, 20 mM Tris pH 7.5, 30 min at 25 °C.

In the case of `N[C@@H](Cc1c[nH]c2ccccc12)C(=O)O` [Trp], the “%γ-^18O4-ATP exchange” value is 9.7 ± 1.6%.
